The nature of data set [1]: Pharmacokinetic testing in mice after intragastric administration. It is filed as in vivo. As to conditions: male, mouse, ICR mice, oral administration 10 mg/kg, plasma. As to the method: ICR mice were taken as test animals, and intragastrically administered with a control compound AMG650 and compounds 47 and 53 of the present invention, and then drug concentrations in plasma at different moments were determined by an LC/MS/MS method, so as to study pharmacokinetic characteristics of the compounds of the present invention in the mice.
Control compound AMG650, and Compounds 47 and 53.
ICR mice, male, 20-22 g, purchased from Vital River Laboratory Animal Technology Co., Ltd.
A proper amount of to-be-tested compound was weighed, proper amounts of DMA, 30% HS-15 and Saline were added in sequence, and the mixture was well mixed by ultrasonic vortex to prepare 1 mg/mL drug preparations respectively, wherein […]: 30% HS-15: Saline=5: 5: 90 (v: v: v).
ICR mice in each to-be-tested compound injection group (9 mice in each group) were fasted overnight and then intragastrically administered with the compound (PO, an administration dosage of the compound was 10 mg/kg and an administration volume of the compound was 10 mL/kg), and were fed 4 hours after administration.
0.25 hours, 0.5 hours, 1 hour, 2 hours, 4 hours, 6 hours, 8 hours and 24 hours before and after administration, about […] of blood was collected through an orbit, and a complete blood sample was placed in an EDTA-K2-containing anticoagulation tube. The collected blood samples were placed on ice, and plasma was centrifugally separated (centrifugation conditions: 1500 g, 10 minutes). The collected plasma was stored at -40°C - -20°C before analysis.
A content of the to-be-tested compound in the plasma of the mice after intragastric administration was determined by LC-MS/MS.

The test system of the next data set is HT-29 cells. The experiment in a line: Inhibition of HT-29 cell proliferation (CellTiter-Glo cell viability). It is filed as cell-based. As to conditions: Homo sapiens; HT-29 cells (TP53 R273H mutation), 120 hours culture with compound; read-out: IC50. The method in brief: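 HT-29 cells (TP53 R273H) in McCOY's 5A with 10% FBS, seeded 1000 cells/well overnight, then exposed to compound at 1000 nM–0.015 nM final for 120 hours at 37°C. Viability by CellTiter-Glo luminescence versus 0.3% DMSO control; IC50 by nonlinear regression of log concentration–inhibition.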

The test system of the next data set is OVCAR-3 cells. In words: Inhibition of OVCAR-3 cell proliferation (CellTiter-Glo cell viability). It is filed as cell-based. As to conditions: Homo sapiens; OVCAR-3 cells (TP53 R248Q mutation), 72 hours culture with compound; read-out: IC50. The method in brief:
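OVCAR-3 cells (TP53 R248Q) in RPMI 1640 with 10% FBS were seeded at 1000 cells/well, grown overnight, then exposed to compound (final 1000 nM–0.015 nM) for 72 h at 37°C, 5% CO2. Viability was read by CellTiter-Glo luminescence. IC50 came from nonlinear regression of inhibition relative to 0.3% DMSO control.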
A general note: In ATP-based viability assays light output follows the ATP content of the culture.

For data set [2], the system named is OVCAR-3 human ovarian adenocarcinoma tumor mass. The experiment in a line: Pharmacodynamic testing in subcutaneous OVCAR-3 xenograft model. It is filed as in vivo, BALB/c nude mice. As to conditions: 35 days after administration, 8 mg/kg po QD, BALB/c nude mice. As to the method: Anti-tumor effects and Safeties of the Compounds 47 and 53 of the present invention in a BALB/c nude mouse animal model subjected to subcutaneous xenotransplantation of OVCAR-3 human ovarian adenocarcinoma tumor mass were evaluated.
BALB/c; nude mice, female, 6-7 weeks old, purchased from Jiangsu Gempharmatech Biotechnology Co., Ltd.
Mice in a solvent control group were given DMA: CrEL: 5%GS=10: 10: 80 (v: v: v). AMG650: a proper amount of AMG-650 was weigned, proper amounts of DMA, CrEL and 5% GS were added in sequence, and the mixture was well mixed by ultrasonic vortex to prepare 0.8 mg/mL drug preparations respectively, wherein DMA: CrEL : 5% GS=10: 10: 80 (v: v: v).
Compound 47: a proper amount of Compound 47 was added with proper amounts of DMA, CrEL and 5% GS in sequence, and evenly mixed by ultrasonic vortex to prepare 0.8 mg/mL drug preparations respectively, wherein DMA, CrEL and 5% GS=10: 10: 80 (v: v: v).
Compound 53: a proper amount of Compound 53 was weighed, proper amounts of DMA, CrEL and 5% GS were added in sequence, and the mixture was well mixed by ultrasonic vortex to prepare 0.8 mg/mL drug preparations respectively, wherein DMA: CrEL : 5% GS=10: 10: 80 (v: v: v).
An appropriate OVCAR-3 tumor-bearing animal was selected, and a 1 mm×1 mm×1 mm OVCAR-3 tumor mass was acquired aseptically and placed into normal saline for later use, which was used for subcutaneous tumor inoculation in a right side of back of the BALB/c nude mice.
About 1 mm×1 mm×1 mm OVCAR-3 tumor mass was subcutaneously inoculated in the right side of back of the female BALB/c nude mice. When an average tumor volume reached about 100-250 mm^3, the mice were randomly grouped based on tumor size, with 6 mice in each group.
Animals in each group were given the test compound once per day according to an animal weight at a fixed time every day by oral administration (po), the animals started to be administered with the test compound for the first time on the day of grouping for 35 consecutive days, and the animal weight was recorded every day.
The 1st group (G1) was a solvent control group; and
The 2nd-4th groups […] were orally administered with AMG-650, Compound 47 and Compound 53 at an administration dosage of 8 mg/kg once per day (QD).

Another data set has as its target T1, recombinant human KIF18A (Homo sapiens, UniProt Q8NI77).
T1 construct: purchased GenScript
In words: Inhibition of KIF18A enzyme activity (ADP-Glo assay). Particulars: recombinant human KIF18A 100 nM, ATP 60 µM, tubulin, paclitaxel; read-out: IC50. It is filed as biochemical. How it is done:
Inhibition degrees of the compounds of the present invention on recombinant human KIF18A enzyme activity in vitro were determined by the following method. An ADP-Glo™ Kinase Assay kit (article number V9102) from Promega Company was used in this method. Detailed experimental operation referred to the instruction of the kit.
An experimental process was briefly described as follows: a test compound was dissolved in DMSO first to prepare a stock solution, then the stock solution was gradiently diluted with a reaction buffer A ([…], 0.01% Pluronic F-68), and a final concentration of the test compound in the reaction system was in a range of 10000 nM-0.15 nM; and a KIF18A protein and ATP working solution was prepared by using a reaction buffer B (15 mM Tris, pH 7.5, 10 mM MgCl2, 0.01% Pluronic F-68, 37.5 µg/ml tubulin, 1.25 µM paclitaxel). The reaction was carried out in a 384-well microplate. The test compound and the recombinant human KIF18A protein (final concentration of 100 nM, entrusted to GenScript for expression) were added into the wells and incubated at room temperature for 20 minutes, and subsequently, an ATP solution (component V915A from the ADP-Glo™ Kinase Assay kit, final concentration of 60 µM) was added to the reaction solution and the system was incubated at room temperature for 20 minutes. Subsequently, 5 µL of ADP-Glo Reagent was added to the reaction systemand the system was incubated at room temperature for 50 minutes. Then, 10 µL of Kinase Detection Reagent was added to the reaction system and the system was incubated at room temperature for 30 minutes. After the incubation was ended, a chemiluminiscence intensity value of each well was determined by a microplate reader in a Luminescence mode.
(In ADP-Glo the light output rises with the ADP produced.)

T1 sequence (Q8NI77 whole entry): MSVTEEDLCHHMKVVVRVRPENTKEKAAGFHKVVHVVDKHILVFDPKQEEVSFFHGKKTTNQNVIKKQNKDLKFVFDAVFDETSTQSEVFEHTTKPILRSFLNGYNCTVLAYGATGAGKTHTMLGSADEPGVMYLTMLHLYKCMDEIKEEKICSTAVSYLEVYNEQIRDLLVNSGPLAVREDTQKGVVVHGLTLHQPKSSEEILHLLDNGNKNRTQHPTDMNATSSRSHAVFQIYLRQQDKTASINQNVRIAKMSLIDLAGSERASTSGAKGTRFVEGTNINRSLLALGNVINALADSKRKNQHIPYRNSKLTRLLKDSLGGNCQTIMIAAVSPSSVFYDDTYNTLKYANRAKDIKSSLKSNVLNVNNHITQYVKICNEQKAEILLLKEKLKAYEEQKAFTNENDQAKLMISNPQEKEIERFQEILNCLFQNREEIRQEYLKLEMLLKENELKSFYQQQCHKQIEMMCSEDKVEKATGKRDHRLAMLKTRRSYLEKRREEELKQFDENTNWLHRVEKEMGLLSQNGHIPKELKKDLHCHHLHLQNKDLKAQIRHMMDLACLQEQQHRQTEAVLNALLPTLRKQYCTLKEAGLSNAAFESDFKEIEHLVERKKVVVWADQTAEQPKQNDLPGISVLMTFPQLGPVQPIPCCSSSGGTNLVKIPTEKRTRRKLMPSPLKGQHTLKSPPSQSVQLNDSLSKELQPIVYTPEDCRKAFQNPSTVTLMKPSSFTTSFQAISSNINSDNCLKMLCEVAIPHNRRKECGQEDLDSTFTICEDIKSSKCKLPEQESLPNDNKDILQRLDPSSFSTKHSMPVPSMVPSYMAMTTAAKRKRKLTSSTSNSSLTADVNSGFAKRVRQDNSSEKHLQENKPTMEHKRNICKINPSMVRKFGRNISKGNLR
T1 sequence (P68363 whole entry partner): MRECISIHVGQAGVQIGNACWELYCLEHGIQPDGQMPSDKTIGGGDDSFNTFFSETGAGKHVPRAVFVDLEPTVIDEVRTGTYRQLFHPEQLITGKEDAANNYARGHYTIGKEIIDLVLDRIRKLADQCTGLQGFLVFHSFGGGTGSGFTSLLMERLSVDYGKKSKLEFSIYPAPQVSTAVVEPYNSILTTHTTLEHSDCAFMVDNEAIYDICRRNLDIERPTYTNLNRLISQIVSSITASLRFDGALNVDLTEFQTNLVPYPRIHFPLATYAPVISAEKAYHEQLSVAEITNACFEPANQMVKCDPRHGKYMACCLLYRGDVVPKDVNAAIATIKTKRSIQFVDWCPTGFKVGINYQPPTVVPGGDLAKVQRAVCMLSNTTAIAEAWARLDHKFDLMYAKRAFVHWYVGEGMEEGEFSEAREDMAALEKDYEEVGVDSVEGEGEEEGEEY
T1 sequence (Q9BVA1 whole entry partner): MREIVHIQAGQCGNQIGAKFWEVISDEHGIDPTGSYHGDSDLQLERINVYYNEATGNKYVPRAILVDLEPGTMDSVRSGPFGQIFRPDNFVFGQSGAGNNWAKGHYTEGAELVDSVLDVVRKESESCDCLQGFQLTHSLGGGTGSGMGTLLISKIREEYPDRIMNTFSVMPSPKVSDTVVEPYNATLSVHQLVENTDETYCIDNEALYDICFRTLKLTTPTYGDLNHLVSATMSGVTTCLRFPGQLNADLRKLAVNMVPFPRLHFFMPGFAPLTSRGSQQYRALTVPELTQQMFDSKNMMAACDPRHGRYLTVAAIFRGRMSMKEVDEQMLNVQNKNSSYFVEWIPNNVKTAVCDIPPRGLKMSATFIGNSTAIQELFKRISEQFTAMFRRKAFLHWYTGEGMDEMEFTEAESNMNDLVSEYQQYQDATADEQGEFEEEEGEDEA

Broadly, the IC50 is the midpoint of a concentration-inhibition curve. Regarding `Cc1cc(NC(=O)c2ccc(NS(=O)(=O)CCO)cc2N2CCC3(CC2)CC3)nc(N2CCC(F)(F)CC2)n1` [AMG 650, reference compound], the AUC(0-inf) in data set [1] (read-out: Area under the curve AUC0-∞) amounted to 52500 ng·h/mL. Further, in data set [1] (read-out: Half-life period T1/2 (converted)), the half-life is 9.64 h. Moreover, the Cmax in data set [1] (read-out: Plasma concentration Cmax) was determined as 3050 ng/mL. Further, the half-inhibitory concentration (IC50) was 61.7 nM in the data set on HT-29 cells and 64.5 nM with OVCAR-3 cells. Also, in data set [2], the TGI% turned out to be 68.1%. Further, in data set [2] (mean value ± standard error, in mm³ (unit assumed)), the “Tumor volume (x±S)” value amounted to 313±76.

On to `O=C(Nc1ccc(-c2nnco2)c(N2CCC(F)(F)CC2)c1)c1ccc(NS(=O)(=O)C2CC2)cc1N1CCC2(CC1)CC2` [Example 41, 4-(cyclopropanesulfonamido)-N-(3-(4,4-difluoropiperidin-1-yl)-4-(1,3,4-oxadiazol-2-yl)phenyl)-2-(6-azaspiro[2.5]octan-6-yl)benzamide], for which the IC50 was 1.8 nM with HT-29 cells, 6.2 nM with OVCAR-3 cells and 155 nM on recombinant human KIF18A.

In the case of `CCS(=O)(=O)Nc1ccc(C(=O)Nc2ccc(-c3ncn(C)n3)c(OC3CC(F)(F)C3)c2)c(N2CCC3(CC2)CC3)c1` [Example 45, N-(3-(3,3-difluorocyclobutoxy)-4-(1-methyl-1H-1,2,4-triazol-3-yl)phenyl)-4-(ethylsulfonamido)-2-(6-azaspiro[2.5]octan-6-yl)benzamide], the IC50 in the data set with HT-29 cells stood at 6.2 nM; in the data set with OVCAR-3 cells, 2.5 nM; on recombinant human KIF18A it was 103 nM.

In the case of `CCS(=O)(=O)Nc1ccc(C(=O)Nc2ccc(-c3ncn(C)n3)c(N3CC(F)(F)C3)c2)c(N2CCC3(CC2)CC3)c1` [Example 46, N-(3-(3,3-difluoroazetidin-1-y 1)-4-(1-methyl-1H-l,2,4-triazo 1-3-yl)phenyl)-4-(ethylsulfonamido)-2-(6-azaspiro[2.5]octan-6-yl)benzamide], the half-maximal inhibitory concentration (IC50) with HT-29 cells turned out to be 0.15 nM; in the data set with OVCAR-3 cells, 3.7 nM; on recombinant human KIF18A, 148 nM.

Consider `CCS(=O)(=O)Nc1ccc(C(=O)Nc2ccc(-c3nnco3)c(N3CC(F)(F)C3)c2)c(N2CCC3(CC2)CC3)c1` [Example 49, N-(3-(3,3-difluoroazetidin-1-y 1)-4-(1,3,4-oxadiazol-2-yl)phenyl)-4-(ethylsulfonamido)-2-(6-azaspiro[2.5]octan-6-yl)benzamide], for which the results for the IC50 in the data set with HT-29 cells, with OVCAR-3 cells and at recombinant human KIF18A were 9.6 nM, 12.6 nM and 70.4 nM, respectively.

Consider `[2H]C([2H])([2H])Oc1ccc(NC(=O)c2ccc(NS(=O)(=O)CCO)cc2N2CCC3(CC2)CC3)cc1N1CCC(F)(F)CC1` [Example 58, N-(3-(4,4-difluoropiperidin-1-yl)-4-(methoxy-d3)phenyl)-4-( (2-hydroxyethyl)sulfonamido) -2-(6-azaspiro[2.5]octan-6-yl) benzamide], for which the IC50 in the data set on HT-29 cells was found to be 1.5 nM; in the data set with OVCAR-3 cells, 2.2 nM; at recombinant human KIF18A, 91.7 nM.

For the origin of these results see patent publication EP4748837A1, “AROMATIC AMIDE DERIVATIVE, AND PREPARATION METHOD THEREFOR AND USE THEREOF” (Zhejiang Hisun Pharmaceutical Co., Ltd., priority 2023, dated 2025).
